Source: patent US20170066780A1, “INHIBITORS OF EZH2” (Eli Lilly and Company, priority 2015, published 2017)

How the values were obtained:
[1] = tested on: cell tri-methylated H3K27 in Karpas-422 (EZH2 Y641N) cells; test: H3K27Me3 cell-based ELISA, Karpas-422; settings: Homo sapiens; Karpas-422, 48 hr
Experimental: The purpose of this assay is to evaluate the ability of a compound to inhibit the functional activity of EZH2 in cells, via measurement of levels of cell tri-methylated H3K27. Plate Karpas-422 (EZH2 Y641N) cells at 5,000 cells/100 μL/well in black 96-well BD BIOCOAT® Cellware, Poly-Lysine plates (BD Biosciences, Cat#354640). Prepare compound plates in a NUNC™ 96-Well Polypropylene MICROWELL™ Plate (Thermo Scientific Cat# #249944) with the addition of 40 μL/well of 10 mM compound (representing starting final concentration of 20 μM) or 40 μL DMSO, then prepare serial dilutions through the transfer of 20 μL from one well to the next. Add 5 μL of test compound to 245 μL/well of growth media in a separate NUNC™ 96-Well Polypropylene MICROWELL™ Plate, and stamp 11 μL of the compound/media mix onto the cell plates. Place cell plates in a 37° C. incubator for 48 hr. Remove plates from the incubator, place the plates at room temperature for 15-20 min, and spin down the plates at 1000 rpm for 5 min Fix cells with 30 μL 16% paraformaldehyde for 15 min at RT. Remove the paraformaldehyde and permeabilize cells with 100 μL/well PBS minus calcium or magnesium (−/−) containing 0.1% TRITON® X-100 for 20 min at RT. Wash plates with PBS (−/−) (2×), followed by incubation for 2 hr at RT of 50 μL/well of primary antibody solution (Diagenode anti-H3K27me3 MAb-181-050; 1:3000 dilution in PBS plus calcium and magnesium (+/+) containing 1% BSA). Wash plates with PBS−/−, (3×) followed by incubation with 50 μL/well secondary antibody solution (Invitrogen goat anti-mouse IgG Alexa 488, Cat# A11001; 1:1000 dilution in PBS+/+) for 1 hr at RT in the dark. Wash plates with PBS−/−, (3×), followed by adding 50 μL/well of 5 μg/mL propidium iodide (Invitrogen; Cat# p3566) staining solution in PBS containing 200 μg/mL RNase (Invitrogen; Cat#12091021). Cover plates with black plate seals and scan on ACUMEN® laser scanning cytometer (TTP Lab Tech) with Ex 488 nm/Em 505 nm-530 nm (H3K27m3 signal) and LP655 nm (cell nuclear signal). […]

A2780 = test: Ovarian cancer cell line proliferation assay (CellTiter-Glo); type: cell-based; settings: Homo sapiens, 240 h, 7- or 10-day assay
Experimental: (§1) Test ovarian cancer cell lines for response to Example 1 or Example 38 in a 7- or 10-day proliferation assay. Optimize each cell line for cell number and splitting schedule which maximizes log phase growth in 96-well format during the 7 or 10-day period. Plate cells in a 96-well black, clear bottom, poly-D-lysine-coated 96-well plate (BD BioSciences; BD BIOCOAT™ Cellware, Poly-Lysine, Cat. #354640) on day 0 in a total volume of 90 μL cell culture media and incubate at 37° C./5% CO2 for 18-24 hrs. On day 1, prepare a compound dilution plate by the addition of 150 μL media containing 2% dimethyl sulfoxide (DMSO; Sigma-Aldrich Cat. #D2438) to columns 3-12 of a 96-well clear flat bottom plate (CORNING® COSTAR® cell culture plate Cat #3596). Prepare 10 mM stocks of Example 1 or Example 38 in 100% DMSO, and further dilute to a working concentration of 200 μM in cell culture media. Add 225 μL of Example 1 or Example 38 to column 2 of the compound dilution plate, and prepare 1:3 10-point serial dilutions of test compound with columns 3 through 12. Add 10 μL of serially diluted compound to cell plates, giving a final test compound concentration range of 1 nM to 20 μM and a final concentration of DMSO of 0.2%. At the end of the 7- or 10-day assay period, subject cells to the CELLTITER-GLO® Luminescent Cell Viability Assay (Promega, Cat. #G7570) as follows: 1) Thaw the CELLTITER-GLO® buffer and equilibrate to room temperature; 2) Equilibrate the lyophilized CELLTITER-GLO® substrate to room temperature; 3) Transfer CELLTITER-GLO® buffer to substrate bottle to form the CELLTITER-GLO® reagent; 4) Equilibrate cell plates to room temperature; 5) For adherent cells only—remove medium from cell plates; 6) Add 25 μL CELLTITER-GLO® reagent to each well; 7) Let plates incubate an additional 20-30 min at room temperature; 8) Read luminescence using the Perkin Elmer EnVision 2104 Multi Detection Microplate Reader.

COV-434 = test: as above; type: cell-based; settings: COV434, 240 h, 7- or 10-day assay
Experimental: as §1

Caov-3 = test: as above; type: cell-based; settings: Homo sapiens, 240 h, 7- or 10-day assay
Experimental: as §1

HEC59 = test: as above; type: cell-based; settings: 240 h, 7- or 10-day assay
Experimental: as §1

HeyA8 = test: as above; type: cell-based; settings: HEY A8, 240 h, 7- or 10-day assay
Experimental: as §1

OVCAR3 = test: as above; type: cell-based; settings: Homo sapiens, OVCAR-3, 240 h, 7- or 10-day assay
Experimental: as §1

SKOV3 = test: as above; type: cell-based; settings: Homo sapiens, SK-OV-3, 240 h, 7- or 10-day assay
Experimental: as §1

TOV-112D = test: as above; type: cell-based; settings: Homo sapiens, TOV112D, 240 h, 7- or 10-day assay
Experimental: as §1

TOV-21G = test: as above; type: cell-based; settings: Homo sapiens, TOV21G, 240 h, 7- or 10-day assay
Experimental: as §1

Row | Compound | IC50 [1] [nM] | IC50 (A2780) [nM] | IC50 (COV-434) [nM] | IC50 (Caov-3) [nM] | IC50 (HEC59) [nM] | IC50 (HeyA8) [nM] | IC50 (OVCAR3) [nM] | IC50 (SKOV3) [nM] | IC50 (TOV-112D) [nM] | IC50 (TOV-21G) [nM]
1 | COC1CN([C@H]2CC[C@H]([C@@H](C)c3sc4c(c3C)C(=O)N(Cc3c(C)cc(C)[nH]c3=O)CC4)CC2)C1 [Example 1, 5-[(4,6-Dimethyl-2-oxo-1,2-dihydropyridin-3-yl)methyl]-2-{(1R)-1-[trans-4-(3-methoxyazetidin-1-yl)cyclohexyl]ethyl}-3-methyl-6,7-dihydrothieno[3,2-c]pyridin-4(5H)-one] | 23.6 ± 20.5 |  |  |  |  |  |  |  |  | 
2 | COC1CN([C@H]2CC[C@H]([C@@H](C)c3sc4c(c3C)C(=O)N(Cc3c(C)cc(C)[nH]c3=O)CCC4)CC2)C1 [Example 38, 5-[(4,6-Dimethyl-2-oxo-1,2-dihydropyridin-3-yl)methyl]-2-{(1R)-1-[trans-4-(3-methoxyazetidin-1-yl)cyclohexyl]ethyl}-3-methyl-5,6,7,8-tetrahydro-4H-thieno[3,2-c]azepin-4-one] | 0.00973 ± 0.00956 | 200 | 20 | 8000 | > 20000 | > 20000 | 8600 | > 20000 | 200 | 100
